{
  "source": "patent US12624008B2",
  "about": "“4-((6-oxopyrimidin-1(6H)-yl)methyl)benzoic acid as an inducer of Z A1AT secretion for treating AATD” (CENTESSA PHARMACEUTICALS (UK) LIMITED, priority 2020, dated 2026)",
  "test_system": "Z A1AT",
  "assay": "Z A1AT cell secretion assay using HEK-Z cells (ELISA of supernatant)",
  "assay_type": "cell-based, human",
  "conditions": "HEK-Z cells, 10, 33, 100 and 333 nM, 48 h, FIG. 1 y-axis in ng/ml",
  "experimental": "HEK-Z cells, a human embryonic kidney cell line stably transfected with the human Z AAT gene, were plated into 96 well plates (3.0×10^5 cells/ml with 200 μl of media/well) overnight at 37° C. in a humidified atmosphere containing 5% CO2. Following incubation cells were washed with 200 μl serum-free media three times and media was replaced with treatments in quadruplicate using vehicle, 10 μM suberanilohydroxamic acid (SAHA) or 4-((6-oxopyrimidin-1(6H)-yl)methyl)benzoic acid (at concentrations of 10, 33, 100 and 333 nM) for 48 h in a 37° C. incubator in a final volume of 200 μl. At the end of the incubation step the supernatants were removed from the wells, centrifuged at 1000×g at 4° C. for 10 min and were assayed for Z A1AT levels by ELISA (Human Serpin A1/α1-antitrypsin duo set ELISA, R&D Systems, DY1268) per manufacturer's instructions.\nBriefly, a 96 well plate was coated with human A1AT capture antibody overnight at room temperature (1:180 dilution from stock, 100 μl final volume/well). […] After which, 50 μl stop solution (2M H2SO4) was added and optical density (OD) of each well was read at 450 nm with 570 nm blank subtracted from each well using a microplate reader. A 4 parameter logistic curve was constructed using GraphPad Prism 8 and Z A1AT concentrations were determined in each sample by interpolation from a standard curve and multiplying by the appropriate dilution factor.",
  "data": [
    {"molecule": "O=C(O)c1ccc(Cn2cnccc2=O)cc1", "note": "[4-((6-oxopyrimidin-1(6H)-yl)methyl)benzoic acid]", "values": [
      {"measurement": "secretion of Z A1AT (concentration of Z A1AT in the cell supernatant)", "value": "increased in a dose dependent manner"}
    ]}
  ]
}
